Format in all cases: biochemical
Assay [1] in a line: Signal differences in mammalian cell culture media (DMEM) versus physiological buffer (HBSS) with hydrogen peroxide. As to conditions: 30 minutes. Here is the method: A 100 μl sample of 4 mg/ml DMSO solution of PBI 4458 was diluted to 500 μl with HBSS buffer (Invitrogen 14025-092), and 50 μl added to wells A1-A9 of a fresh microtiter plate (“DISP”). 100 μl 4 mg/ml DMSO solution of PBI 4472 was diluted to 500 μl with HBSS, and 50 μl added to wells E1-E9. 90 μl HBSS was added to wells A1-B9 of two new microtiter plates labeled “RT” and “37C”. 90 μl DMEM was added to wells C1-D9 of both plates.
A sample of 30% hydrogen peroxide (Sigma H1009-5 ml) was diluted to 1 mM with Nanopure water, and 7.5 μl 1 mM hydrogen peroxide diluted to 1.5 ml with HBSS, and 90 μl added to wells A4-B6 of plates RT and 37° C. 15 μl 1 mM hydrogen peroxide was diluted to […] with HBSS, and 90 μl added to wells A7-B9 of both plates. 90 μl of HBSS was added to wells A1-B3, and 90 μl of DMEM added to wells C1-D3 of both plates. 7.5 μl 1 mM hydrogen peroxide was diluted to 1.5 ml with DMEM, and 90 μl added to wells C4-D6 of both plates. 15 μl 1 mM hydrogen peroxide was diluted to 1.5 ml with DMEM and 90 μl added to wells C7-D9 of both plates.
10 μl samples of row A of plate “DISP” was transferred to rows A and C of plates RT and 37° C., and 10 μl of row B of plate “DISP” transferred to rows B and D of plates RT and 37° C. The 37° C. plate was incubated at 37° C., 5% CO2, with plate RT incubated at room temperature. Both plates were incubated for 30 minutes.
A conversion solution was made by mixing 7.5 ml of 1 M HEPES, pH 8.0, 7.4 ml Nanopure water and 100 μl 100 mM D cysteine. After mixing, 75 μl was added to all wells of a new luminometer plate.
After incubation, 25 μl from wells A1-D9 of the 37° C. plate was transferred to wells E1-H9 of the new luminometer plate, 25 μl of wells A1-D9 of the RT plate was transferred to wells A1-D9 of new luminometer plate, and the plate incubated at room temperature for 2-3 minutes. A 100 μl sample of LDR (Example 23) was added to wells A1-H9, incubated for 15 minutes at room temperature, and bioluminescence detected on a GloMax® luminometer. After reading, the duplicate wells were averaged, and the averaged values with peroxide addition were compared to those without peroxide (Table 11).

Assay [2] in a line: Light generation from compounds following incubation with hydrogen peroxide in different pH solutions (D-cysteine conversion, LDR). The conditions noted are these: for Signal to Background Ratios: signal with peroxide to background no peroxide. Here is the method:
In this experiment, various compounds were tested for their ability to detect hydrogen peroxide in different pH solutions. Several compounds are shown to give much better signal strength and signal to background ratios than PBI 3048 (Example 23). 4 mg/ml solutions of compounds PBI 4480, 4481, 4452, 4470, 4472, 3048 (FIGS. 1 and 2) were made by dissolving them in DMSO (Fluka 41641). 30 μl of the compound solutions was diluted to 1.5 ml with Nanopure water, and 50 μl aliquots added as follows into a white, 96-well luminometer plate: PBI 4481, row A1-12; PBI 4480, row B1-12; PBI 4452, row C1-12; PBI 3048, row D1-12; PBI 4472, row E1-12 and PBI 4470, row F1-12.
25 μl of 200 mM TRIS buffer, pH 7.6 was added to wells A1-F4, 25 μl of 200 mM TRIS buffer, pH 8.8 was added to wells A5-F8, and 25 μl of 200 mM Tris buffer, pH 10.4 was added […].
30% hydrogen peroxide (Sigma H 1009-5 ml) was diluted to 40 μM in Nanopure water, and 25 μl added to columns 3, 4, 7, 8, 11 and 12 of the plate. 25 μl water was added to columns 1, 2, 5, 6, 9, and 10 of the plate, and the plate incubated at room temperature for 60 minutes.
A conversion solution was made by mixing 100 μl of 100 mM D-cysteine, 1 ml Tris Buffer pH 8.8 and 8.9 ml nanopure water. After mixing, 80 μl of the solution was added to wells A1-F12 of a new luminometer plate.
After incubation, 20 μl of sample from wells A1-F12 of the first plate was transferred to the same well in the new luminometer plate. The new plate was incubated at room temperature for 5 minutes, 100 μl of LDR (Example 23) was added to wells A1-F12, and bioluminescence detected on a Glo Max® luminometer (Promega).
The RLUs for the duplicate wells were averaged. The averages for the wells containing hydrogen peroxide were compared to the wells without hydrogen peroxide at the same pH (Table 2). BZT is used to designate benzothiazole derivatives of the compounds.
The Signal to Background (S/B) ratio is used to compare assay reagents with very difference signal strengths. An assay with a higher S/B ratio is often considered a better assay than one with a smaller S/B ratio (with all other factors being relatively equal).

Assay [3] in a line: Background reduction of PBI 4472 with background reduction reagent (TCEP). The conditions noted are these: 50 μM, 100 mM Tris base pH 10.4, BRR (TCEP) versus untreated, FIG. 4. Here is the method: PBI 4472 (50 μM) was incubated with assay buffer (100 mM Tris base, pH 10.4) for 15 minutes at room temperature. The samples were then either treated with a background reduction reagent (BRR; TCEP) or remained untreated. After a 15 minute incubation at room temperature, luciferin detection reagent with 1 mM D-cysteine (Promega Corporation) was added to the samples and incubated for 20 minutes at room temperature. Luminescence was detected on a Tecan F500 plate reader.

Setting [4] is: pH 7.6 TRIS buffer, No H2O2, 60 minutes.
[5] abbreviates: pH 7.6 TRIS buffer, With H2O2 (25 μl of 40 μM added), 60 minutes.
Where [6] appears, read: pH 8.8 TRIS buffer, No H2O2, 60 minutes.
Setting [7] is: pH 8.8 TRIS buffer, With H2O2 (25 μl of 40 μM added), 60 minutes.
The mark [8] stands for this setting: pH 10.4 Tris buffer, No H2O2, 60 minutes.
Setting [9] is: pH 10.4 Tris buffer, With H2O2 (25 μl of 40 μM added), 60 minutes.

`CC1(C)OB(c2ccc(COc3ccc4nc(C#N)sc4c3)cc2)OC1(C)C` [PBI 4472, 6-((4-(4,4,5,5-tetramethyl-1,3,2-dioxaborolan-2-yl)benzyl)oxy)benzo-[d]thiazole-2-carbonitrile]: the “Averaged Relative Light Unit Values” in assay [1] (DMEM, 37 C. plate, 0 uM Per) is recorded as 400,077 Relative Light Unit; in assay [1] (DMEM, 37 C. plate, 5 uM Per) it was 3,083,589 Relative Light Unit; in assay [1] (DMEM, 37 C. plate, 10 uM Per), 5,340,569 Relative Light Unit; in assay [1] (DMEM, RT plate, 0 uM Per) it was 921,496 Relative Light Unit; in assay [1] (DMEM, RT plate, 5 uM Per), 4,304,645 Relative Light Unit; in assay [1] (DMEM, RT plate, 10 uM Per), 8,071,553 Relative Light Unit. For the same compound, the “Averaged Relative Light Unit Values” in assay [1] (HBSS, 37 C. plate, 0 uM Per) is 44,007 Relative Light Unit; in assay [1] (HBSS, 37 C. plate, 5 uM Per), 424,851 Relative Light Unit; in assay [1] (HBSS, 37 C. plate, 10 uM Per), 715,803 Relative Light Unit; in assay [1] (HBSS, RT plate, 0 uM Per), 103,738 Relative Light Unit; in assay [1] (HBSS, RT plate, 5 uM Per), 1,106,195 Relative Light Unit; in assay [1] (HBSS, RT plate, 10 uM Per) it was 2,058,421 Relative Light Unit. Besides, the “Signal to Background Ratios” value in assay [2] (pH 7.6) turned out to be 18.0; in assay [2] (pH 8.8), 31.6; in assay [2] (pH 10.4), 24.1. Further, the “averaged RLUs (bioluminescence)” value in assay [2] (setting [4]) is 102,925 RLU; in assay [2] (setting [5]), 1,854,434 RLU; in assay [2] (setting [6]), 163,710 RLU; in assay [2] (setting [7]) it was 5,175,361 RLU; in assay [2] (setting [8]), 337,921 RLU; in assay [2] (setting [9]), 8,159,216 RLU. Also, the “background luminescence with reduction reagent (in words)” value in assay [3] was “can reduce background”.
`CC1(C)OB(/C=C/COc2ccc3nc(C#N)sc3c2)OC1(C)C` [PBI 4458, (E)-6-((3-(4,4,5,5-tetramethyl-1,3,2-dioxaborolan-2-yl)allyl)oxy)-benzo[d]thiazole-2-carbonitrile]: the “Averaged Relative Light Unit Values” in assay [1] (DMEM, 37 C. plate, 0 uM Per) is on record as 986,772 Relative Light Unit; in assay [1] (DMEM, 37 C. plate, 5 uM Per), 5,686,033 Relative Light Unit; in assay [1] (DMEM, 37 C. plate, 10 uM Per), 12,130,782 Relative Light Unit; in assay [1] (DMEM, RT plate, 0 uM Per) it was 2,075,191 Relative Light Unit; in assay [1] (DMEM, RT plate, 5 uM Per), 8,556,256 Relative Light Unit; in assay [1] (DMEM, RT plate, 10 uM Per) it was 16,016,143 Relative Light Unit. Also, the “Averaged Relative Light Unit Values” in assay [1] (HBSS, 37 C. plate, 0 uM Per) is listed as 434,728 Relative Light Unit; in assay [1] (HBSS, 37 C. plate, 5 uM Per), 2,791,805 Relative Light Unit; in assay [1] (HBSS, 37 C. plate, 10 uM Per), 4,912,905 Relative Light Unit; in assay [1] (HBSS, RT plate, 0 uM Per), 853,268 Relative Light Unit; in assay [1] (HBSS, RT plate, 5 uM Per) it was 6,111,214 Relative Light Unit; in assay [1] (HBSS, RT plate, 10 uM Per), 10,641,411 Relative Light Unit.
In the case of `CC1(C)OB(c2ccc(COc3ccc4nc(C#N)sc4c3)cc2F)OC1(C)C` [PBI 4481, 6-((3-fluoro-4-(4,4,5,5-tetramethyl-1,3,2-dioxaborolan-2-yl)benzyl)oxy)benzo[d]thiazole-2-carbonitrile], the “Signal to Background Ratios” value in assay [2] (pH 7.6) is on record as 7.0; in assay [2] (pH 8.8) it was 21.1; in assay [2] (pH 10.4) it was 32.4. Further, the “averaged RLUs (bioluminescence)” value in assay [2] (setting [4]) is 124,246 RLU; in assay [2] (setting [5]), 873,626 RLU; in assay [2] (setting [6]), 135,530 RLU; in assay [2] (setting [7]), 2,854,279 RLU; in assay [2] (setting [8]) it was 230,459 RLU; in assay [2] (setting [9]), 7,474,603 RLU.
In the case of `CC1(C)OB(c2ccc(COc3ccc4nc(C#N)sc4c3)c3ccccc23)OC1(C)C` [PBI 4480, 6-((4-(4,4,5,5-tetramethyl-1,3,2-dioxaborolan-2-yl)naphthalen-1-yl)methoxy)benzo[d]thiazole-2-carbonitrile], the “Signal to Background Ratios” value in assay [2] (pH 7.6) came to 4.5; in assay [2] (pH 8.8), 8.7; in assay [2] (pH 10.4) it was 20.0. The “averaged RLUs (bioluminescence)” value in assay [2] (setting [4]) is given as 146,664 RLU; in assay [2] (setting [5]), 657,132 RLU; in assay [2] (setting [6]), 179,821 RLU; in assay [2] (setting [7]), 1,563,422 RLU; in assay [2] (setting [8]), 265,315 RLU; in assay [2] (setting [9]) it was 5,295,463 RLU.
`O=C(O)C1CSC(c2nc3ccc(OCc4ccc(B(O)O)cc4)cc3s2)=N1` (stereo not shown) [PBI 3048]: the “Signal to Background Ratios” value in assay [2] (pH 7.6) is recorded as 3.0; in assay [2] (pH 8.8) it was 4.5; in assay [2] (pH 10.4) it was 6.7. The “averaged RLUs (bioluminescence)” value in assay [2] (setting [4]) is 569,141 RLU; in assay [2] (setting [5]), 1,726,143 RLU; in assay [2] (setting [6]), 558,869 RLU; in assay [2] (setting [7]), 2,499,869 RLU; in assay [2] (setting [8]), 558,333 RLU; in assay [2] (setting [9]), 3,768,437 RLU.
